This is an account of results in patent US20110257171A1, “NOVEL IMIDAZO[1,2-A]PYRIDINE DERIVATIVES, METHOD FOR THE PREPARATION THEREOF, USE THEREOF AS MEDICAMENTS, PHARMACEUTICAL COMPOSITIONS AND NOVEL USE IN PARTICULAR AS MET INHIBITORS” (SANOFI-AVENTIS, priority 2008, published 2011).

pIC50: −log10 of the molar value. Some results are limits rather than exact numbers.

Data set [1] deals with T1, MET (Homo sapiens, UniProt P08581). The experiment in a line: Test A: HTRF MET assay in 96-well format. Format: biochemical. Details: The His-Tev-MET (956-1390) recombinant DNA in pFastBac (Invitrogen) is transfected into insect cells; His (N, cleaved yes); Tev cleavage site (N); made in house; host or cells: SF21 insect cells (baculovirus, pFastBac). The conditions noted are these: MET 5 nM, 10 μM ATP. The protocol:
The His-Tev-MET (956-1390) recombinant DNA in pFastBac (Invitrogen) is transfected into insect cells and, after several viral amplification steps, the final baculovirus stock is tested for the expression of the protein of interest.
After infection for 72 h at 27° C. with the recombinant virus, SF21 cell cultures are harvested by centrifugation and the cell pellets are stored at −80° C.
The cell pellets are resuspended in the lysis buffer (buffer A [50 mM HEPES, pH 7.5, 250 mM NaCl, 10% glycerol, 1 mM TECP]; +cocktail of protease inhibitors, Roche Diagnostics, without EDTA, ref 1873580), stirred at 4° C. until the mixture is homogeneous, and then lysed mechanically using a “Dounce” type apparatus.
After centrifugation, the lysis supernatant is incubated for 2 h at 4° C. with nickel chelate resin (His-Trap 6 Fast Flow™, GE HealthCare). After washing with 20 volumes of buffer A, the suspension is packed into a column, and the proteins are eluted with a gradient of buffer B (buffer A+290 mM imidazole).
The fractions containing the protein of interest, for the purpose of electrophoretic analysis (SDS PAGE), are combined, concentrated by ultrafiltration (10 kDa cut-off) and injected onto an exclusion chromatography column (Superdex® 200, GE HealthCare) equilibrated in buffer A.
After enzymatic cleavage of the histidine tag, the protein is reinjected onto a new IMAC nickel chelate chromatography column (His-Trap 6 Fast Flow™ GE HealthCare) equilibrated in buffer A. The fractions eluted with a gradient of buffer B and containing the protein of interest after electrophoresis (SDS PAGE) are finally combined and stored at −80° C.
For the production of autophosphorylated protein, the previous fractions are incubated for 1 h at ambient temperature after the addition of 2 mM ATP, 2 mM MgCl2 and 4 mM Na3VO4. After the reaction has been stopped with 5 mM of EDTA, the reaction mixture is injected onto a HiPrep desalifying column (GE HealthCare) pre-equilibrated in buffer A+4 mM Na3VO4, and the fractions containing the protein of interest (SDS PAGE analysis) are combined and stored at −80° C. The degree of phosphorylation is verified by mass spectrometry (LC-MS) and by peptide mapping.
MET at a final concentration of 5 nM is incubated in a final volume of 50 μl of enzymatic reaction in the presence of the test molecule (for a final concentration range of from 0.17 nM to 10 μM, 3% DMSO final concentration) in 10 mM MOPS buffer, pH 7.4, 1 mM DTT, 0.01% Tween 20. The reaction is initiated with the substrate solution to obtain final concentrations of 1 μg/ml poly-(GAT), 10 μM ATP and 5 mM MgCl2. After incubation for 10 min at ambient temperature, the reaction is stopped with a 30 μl mix so as to obtain a final solution of 50 mM Hepes, pH 7.5, 500 mM potassium fluoride, 0.1% BSA and 133 mM EDTA in the presence of 80 ng of streptavidin 61 SAXLB Cis-Bio Int. and 18 ng of anti-phosphotyrosine Mab PT66-Europium Cryptate per well. After incubation for 2 hours at ambient temperature, the reading is taken at 2 wavelengths, 620 nm and 665 nm, on a reader for the TRACE/HTRF technique, and the % inhibition is calculated from the 665/620 ratios.
Target sequence in this assay (P08581 956-1390): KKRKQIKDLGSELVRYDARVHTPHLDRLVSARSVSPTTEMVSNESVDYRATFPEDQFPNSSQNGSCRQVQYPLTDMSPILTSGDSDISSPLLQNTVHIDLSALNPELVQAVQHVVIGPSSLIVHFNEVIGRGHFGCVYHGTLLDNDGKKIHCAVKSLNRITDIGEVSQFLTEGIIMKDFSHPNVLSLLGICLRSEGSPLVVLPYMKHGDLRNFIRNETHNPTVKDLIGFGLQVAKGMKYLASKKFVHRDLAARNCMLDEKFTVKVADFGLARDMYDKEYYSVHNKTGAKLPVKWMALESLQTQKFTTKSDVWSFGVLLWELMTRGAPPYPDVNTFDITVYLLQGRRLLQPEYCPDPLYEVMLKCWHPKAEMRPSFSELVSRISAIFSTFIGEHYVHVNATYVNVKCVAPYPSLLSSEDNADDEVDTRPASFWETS
For orientation: Time-resolved FRET reads energy transfer from a long-lived donor to a nearby acceptor.

Data set [2] deals with T1, MET. In words: Test B: inhibition of the autophosphorylation of MET, ELISA technique (pppY1230, 1234, 1235) in MKN45 cells. The conditions noted are these: 1 h treatment, phosphoMET ELISA. Format: cell-based. Details: endogenous in cells; host or cells: MKN45 cells. The protocol: B) Test B: Inhibition of the Autophosphorylation of Met; ELISA Technique (pppY1230, 1234, 1235) a) Cell lysates: MKN45 cells are seeded into 96-well plates (cell coat BD polylysine) at 20 000 cells/well in 200 μl of RPMI medium+10% FCS+1% L-glutamine. They are left to adhere for 24 hours in an incubator.
The cells are treated the day after seeding with the products at 6 concentrations, in duplicate, for 1 h. At least 3 control wells are treated with the same final amount of DMSO.
Product dilution: Stock at 10 mM in pure DMSO—range from 10 mM to 30 μM with an increment of 3 in pure DMSO—intermediate dilutions to 1/50 in culture medium and then removal of 10 μl added directly to the cells (200 μl): final range of 10 000 to 30 nM.
At the end of the incubation, the supernatant is carefully removed and rinsing is performed with 200 μl of PBS. Next, 100 μl of lysis buffer are placed directly in the wells on ice and incubated at 4° C. for 30 minutes. Lysis buffer: 10 mM Tris HCl, pH 7.4, 100 mM NaCl, 1 mM EDTA, 1 mM EGTA, 1% Triton X-100, 10% glycerol, 0.1% SDS, 0.5% deoxycholate, 20 mM NaF, 2 mM Na3VO4, 1 mM PMSF and cocktail of antiproteases.
The 100 μl of lysates are transferred into a V-bottomed polypropylene plate and the ELISA is performed immediately, or the plate is frozen at −80° C.
70 μl of kit dilution buffer+30 μL of cell lysate, or 30 μl of lysis buffer for the blanks, are added to each well of the kit plate. Incubation is carried out for 2 h with gentle agitation at ambient temperature.
The wells are rinsed 4 times with 400 μl of kit washing buffer. Incubation is carried out with 100 μl of anti-phospho MET antibody for 1 hour at ambient temperature.
The wells are rinsed 4 times with 400 μl of kit washing buffer. Incubation is carried out with 100 μl of anti-rabbit HRP antibody for 30 minutes at ambient temperature (except for the wells of chromogen alone).
The wells are rinsed 4 times with 400 μl of kit washing buffer. 100 μL of chromogen are introduced and incubation is carried out for 30 minutes in the dark at ambient temperature.
The reaction is stopped with 100 μl of stop solution. The plate is read without delay at […], 0.1 second on a Wallac Victor plate reader.
Target sequence in this assay (P08581 25-1390): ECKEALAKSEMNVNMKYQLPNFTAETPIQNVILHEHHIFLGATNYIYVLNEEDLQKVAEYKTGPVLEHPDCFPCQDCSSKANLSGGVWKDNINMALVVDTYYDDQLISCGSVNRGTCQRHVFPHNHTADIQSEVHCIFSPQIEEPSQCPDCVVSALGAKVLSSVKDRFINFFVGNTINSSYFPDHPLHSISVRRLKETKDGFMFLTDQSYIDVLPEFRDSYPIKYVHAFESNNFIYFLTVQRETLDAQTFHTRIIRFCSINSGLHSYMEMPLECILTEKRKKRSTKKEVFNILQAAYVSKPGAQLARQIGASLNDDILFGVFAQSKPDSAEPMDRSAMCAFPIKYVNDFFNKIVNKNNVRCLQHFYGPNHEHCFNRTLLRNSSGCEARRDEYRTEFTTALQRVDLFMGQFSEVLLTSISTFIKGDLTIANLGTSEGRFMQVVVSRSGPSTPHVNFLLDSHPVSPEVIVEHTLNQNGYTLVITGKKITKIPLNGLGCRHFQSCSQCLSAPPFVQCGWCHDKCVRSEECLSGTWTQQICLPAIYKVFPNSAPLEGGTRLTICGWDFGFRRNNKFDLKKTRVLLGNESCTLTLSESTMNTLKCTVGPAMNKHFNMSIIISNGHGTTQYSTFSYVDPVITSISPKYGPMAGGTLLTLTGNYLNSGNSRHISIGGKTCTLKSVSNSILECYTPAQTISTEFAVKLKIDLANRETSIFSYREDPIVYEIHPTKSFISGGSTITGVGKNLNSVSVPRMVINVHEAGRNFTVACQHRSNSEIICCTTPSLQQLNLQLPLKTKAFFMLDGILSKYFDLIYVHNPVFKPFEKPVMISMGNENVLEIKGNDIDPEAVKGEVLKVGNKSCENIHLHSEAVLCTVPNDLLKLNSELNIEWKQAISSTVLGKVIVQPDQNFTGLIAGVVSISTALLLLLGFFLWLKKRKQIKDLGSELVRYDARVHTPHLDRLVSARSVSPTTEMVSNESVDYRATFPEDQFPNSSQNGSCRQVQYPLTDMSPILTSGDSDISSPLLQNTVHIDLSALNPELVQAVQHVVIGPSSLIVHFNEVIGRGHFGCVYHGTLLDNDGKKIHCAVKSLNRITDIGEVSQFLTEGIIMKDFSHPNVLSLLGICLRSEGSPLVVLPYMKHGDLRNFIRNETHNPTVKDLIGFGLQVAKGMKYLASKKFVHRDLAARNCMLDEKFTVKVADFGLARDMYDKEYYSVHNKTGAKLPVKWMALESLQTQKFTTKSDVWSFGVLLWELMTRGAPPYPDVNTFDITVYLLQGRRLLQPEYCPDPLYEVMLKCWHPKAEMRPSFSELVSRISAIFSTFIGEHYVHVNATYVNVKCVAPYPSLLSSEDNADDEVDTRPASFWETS

Data set [3] has as its system HCT116 cells and MKN45 cells. In words: Test C: measurement of cell proliferation by 14C-thymidine pulse. Format: cell-based. Particulars: 14C-thymidine incorporation, 96 h of treatment; cell line not given. The protocol:
The cells are seeded into Cytostar 96-well plates in 180 μl for 4 hours at 37° C. and 5% CO2: HCT116 cells in a proportion of 2500 cells per well in DMEM medium+10% foetal calf serum+1% L-glutamine, and MKN45 cells in a proportion of 7500 cells per well in RPMI medium+10% foetal calf serum+1% L-glutamine. After these 4 hours of incubation, the products are added in 10 μl as a […] concentrated solution according to the dilution method mentioned for the ELISA. The products are tested at 10 concentrations in duplicate from 10 000 nM to 0.3 nM with an increment of 3.
After treatment for 72 h, 10 μl of ^14C-thymidine at 10 μCi/ml are added so as to obtain 0.1 μCi per well. The ^14C-thymidine incorporation is measured on a Micro-Beta machine (Perkin-Elmer) after 24 hours of pulse and 96 h of treatment.
All the steps of the assay are automated on BIOMEK 2000 or TECAN stations.
For orientation: Uptake of a labelled nucleoside into DNA is a usual measure of proliferation.

By pIC50 is commonly meant the IC50 on a negative log10 scale, so that one unit is a factor of ten. As usually defined, the melting point is the temperature, or range, at which the solid turns liquid. `CC(C)(C)OC(=O)N1CCC(n2cc(-c3ccc4ncc(Sc5ccc6nc(NC(=O)C7CC7)sc6c5)n4c3)cn2)CC1` [Example 11, tert-butyl 4-{4-[3-({2-[(cyclopropylcarbonyl)amino]-1,3-benzothiazol-6-yl}sulphanyl)imidazo[1,2-a]pyridin-6-yl]-1H-pyrazol-1-yl}piperidine-1-carboxylate]: the melting point stood at 247 °C. For the same compound, the pIC50 on MET [1] is more than 7.00. The pIC50 against MET [2] was more than 7.00. The same compound showed a pIC50 in data set [3] of more than 6.00.
